Key:
[1] = molecular target: T1, cytochrome P450 3A4 (CYP3A4) (Homo sapiens, UniProt P08684); assay: equilibrium spectral titration, Hill fit (S50; nH […]); format: binding
T1 construct: Δ3-22 CYP3A4

[2] = molecular target: T2, cytochrome P450 3A4 (CYP3A4) (Homo sapiens, UniProt P08684, F219A); assay: as above; format: binding
T2 construct: Δ3-22 CYP3A4
T2 sequence (P08684 23-503 F219A): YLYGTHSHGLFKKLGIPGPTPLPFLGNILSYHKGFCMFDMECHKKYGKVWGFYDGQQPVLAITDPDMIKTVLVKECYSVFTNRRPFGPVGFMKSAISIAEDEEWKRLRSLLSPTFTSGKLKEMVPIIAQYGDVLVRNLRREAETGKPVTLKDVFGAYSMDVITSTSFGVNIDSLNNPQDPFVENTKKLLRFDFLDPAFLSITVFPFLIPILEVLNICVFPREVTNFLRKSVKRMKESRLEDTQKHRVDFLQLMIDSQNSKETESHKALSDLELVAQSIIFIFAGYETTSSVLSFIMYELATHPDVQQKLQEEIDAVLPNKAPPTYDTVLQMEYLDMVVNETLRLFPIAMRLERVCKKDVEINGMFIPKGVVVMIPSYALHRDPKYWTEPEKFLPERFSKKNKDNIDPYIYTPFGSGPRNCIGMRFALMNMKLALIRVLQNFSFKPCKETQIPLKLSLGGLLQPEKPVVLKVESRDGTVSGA

T1 sequence (P08684 23-503): as the sequence (P08684 23-503 F219A) above, with A197F counted along it

Compound: CC(=O)[C@H]1CC[C@H]2[C@@H]3CCC4=CC(=O)CC[C@]4(C)[C@H]3CC[C@]12C [PRG, progesterone]
- Kd [1]: 103 ± 3 µM
- Kd [2]: 158 ± 9 µM
